Source: patent publication US6576593B2, “Synergistic herbicidal compositions comprising herbicides from the benzoylcyclohexanedione group for use in maize corps” (Aventis CropScience GmbH, priority 2001, dated 2003)

Columns and labels:
[1] = system: Avena fatua (AVENA); assay: Herbicidal activity of A5, herbicides (B) and their combinations, visual scoring, against AVEFA; type: in vivo
Procedure: (§1) The herbicidal efficacy of the active ingredients or active ingredient mixtures was scored visually by comparing the treated plots with untreated control plots. The damage and development of all aerial plant parts was recorded. […] The score figures of in each case 4 plots were averaged. Maize plants were grown in the open on plots of from 5 to 10 m^2 in size on different soils and under various climatic conditions, the natural presence of harmful plants or seeds thereof in the soil being exploited for the experiments. […] The active ingredient or active ingredient combinations were applied post-emergence as WG, WP or EC formulations. After 2 to 8 weeks, the plants were scored visually in comparison with an untreated comparison group. […] Moreover, the herbicidal activities of the compositions according to the invention exceed the expected values calculated using Colby's formula. In contrast, the maize plants were left unharmed or virtually unharmed as a consequence of the treatment. When applying the combinations according to the invention, herbicidal effects are frequently observed on a harmful plant species which exceed the formal total of the effects of the herbicides present when these are applied by themselves. Alternatively, it is observed in some cases that a lower application rate is required for the herbicide combination in order to achieve the same effect on a harmful plant species in comparison with the individual products. […] The biological examples listed in the tables hereinbelow relate to the herbicidal activity of combinations according to the invention of the following herbicides against the harmful plants Ipomea laputifolia (IPOMEA) and Avena fatua (AVENA): […]

[2] = system: Ipomea laputifolia (IPOMEA); assay: Herbicidal activity of A5, herbicides (B) and their combinations, visual scoring, against IPOMEA; type: in vivo
Procedure: as §1

Question: With CC(C)N(C(=O)COc1nnc(C(F)(F)F)s1)c1ccc(F)cc1 [Compound B1.4, flufenacet] as the compound, how does the pest or weed control at 373 g/ha ([1]; Avena fatua, Dosage 373 g ai/ha, read-out: Activity against AVEFA found) read?
Answer: 50%

Question: What about the pest or weed control at 373 g/ha ([2]; Dosage 373 g ai/ha, read-out: Activity against IPOMEA found) of the same compound?
Answer: 25%

Question: CCc1cccc(C)c1N(C(=O)CCl)C(C)COC (stereo not drawn) [Compound B1.5, metolachlor] was tested. Which pest or weed control at 960 g/ha ([1]; Avena fatua, Dosage 960 g ai/ha, read-out: Activity against AVEFA found) did it give?
Answer: 20%

Question: And the pest or weed control at 960 g/ha ([2]; Dosage 960 g ai/ha, read-out: Activity against IPOMEA found)?
Answer: 13%

Question: How did the pest or weed control at 540 g/ha ([1]; Avena fatua, Dosage 540 g ai/ha, read-out: Activity against AVEFA found) turn out when CCNc1nc(Cl)nc(NC(C)C)n1 [Compound B2.1, atrazine] was run?
Answer: 50%

Question: What about the pest or weed control at 540 g/ha ([2]; Dosage 540 g ai/ha, read-out: Activity against IPOMEA found) of the same compound?
Answer: 25%

Question: N#Cc1cc(Br)c(O)c(Br)c1 [Compound B2.2, bromoxynil] was tested. Which pest or weed control at 140 g/ha ([1]; Avena fatua, Dosage 140 g ai/ha, read-out: Activity against AVEFA found) did it give?
Answer: 20%

Question: And the pest or weed control at 140 g/ha ([2]; Dosage 140 g ai/ha, read-out: Activity against IPOMEA found)?
Answer: 25%

Question: Which results are given for COc1c(Cl)ccc(Cl)c1C(=O)O [Compound B4.1, dicamba]?
Answer: pest or weed control at 80 g/ha ([1]; Avena fatua, Dosage 80 g ai/ha, read-out: Activity against AVEFA found): 10%; pest or weed control at 80 g/ha ([2]; Dosage 80 g ai/ha, read-out: Activity against IPOMEA found): 25%

Question: For CCc1cnc(C2=NC(C)(C(C)C)C(=O)N2)c(C(=O)O)c1 (stereo not drawn) [Compound B5.6, imazethapyr], which pest or weed control at 30 g/ha ([1]; Avena fatua, Dosage 30 g ai/ha, read-out: Activity against AVEFA found) is on record?
Answer: 10%

Question: What about the pest or weed control at 30 g/ha ([2]; Dosage 30 g ai/ha, read-out: Activity against IPOMEA found) of the same compound?
Answer: 25%

Question: What does the source list for COC(=O)c1ccc(I)cc1S(=O)(=O)[N-]C(=O)Nc1nc(C)nc(OC)n1.[Na+] [Compound B5.7, iodosulfuron-methyl-sodium]?
Answer: Activity against AVEFA found ([1]; Dosage 1 g ai/ha): 30%; Activity against IPOMEA found ([2]; Dosage 1 g ai/ha): 20%

Question: How did the pest or weed control at 15 g/ha ([1]; Avena fatua, Dosage 15 g ai/ha, read-out: Activity against AVEFA found) turn out when COc1cc(OC)nc(NC(=O)NS(=O)(=O)c2ncccc2C(=O)N(C)C)n1 [Compound B5.9, nicosulfuron] was run?
Answer: 40%

Question: What about the pest or weed control at 15 g/ha ([2]; Dosage 15 g ai/ha, read-out: Activity against IPOMEA found) of the same compound?
Answer: 20%

Question: CCC(CC)Nc1c([N+](=O)[O-])cc(C)c(C)c1[N+](=O)[O-] [Compound B7.1, pendimethalin] was tested. Which pest or weed control at 840 g/ha ([1]; Avena fatua, Dosage 840 g ai/ha, read-out: Activity against AVEFA found) did it give?
Answer: 10%

Question: And the pest or weed control at 840 g/ha ([2]; Dosage 840 g ai/ha, read-out: Activity against IPOMEA found)?
Answer: 40%
